Measured values published in patent US4945090A, “Phenoxy-substituted beta-carboline derivatives, their production and their use as drugs” (Schering Aktiengesellschaft, priority 1985, dated 1990).
≈ marks a conversion by molar mass, not a printed value.

How the values were obtained:
benzodiazepine receptors [1] = test: displacement of 3H-flunitrazepam from benzodiazepine receptors in live brain, in vivo; details: reduction of specific flunitrazepam binding in live brain to 50% of control; normally intraperitoneal; 3H-flunitrazepam i.v. after 15 minutes, forebrain removed after another 20 minutes
[2] = tested on: spasms induced by pentylenetrazole (pentazol); test: PTZ spasms antagonism (protection from pentylenetrazole-induced spasms and death); design: species or system mice; details: Mus musculus, ip, 0.5 h; protects 50% of animals from spasms and death; test substance i.p. 15-30 minutes before pentazol 150 mg/kg s.c.; Litchfield and Wilcoxon; read-out: PTZ (ED50) mg/kg in vivo
Description: The compounds according to the invention especially show anxiolytic and anticonvulsive effectiveness. […] Pentazol is administered subcutaneously in an amount of 150 mg/kg as hydrochloric acid solution (pH 2-3) 15-30 minutes after the intraperitoneal application of the test substance. This amount induces clonic and tonic spasms, which lead to death in untreated animals. The number of mice which show spasms and the number of them that died 30 minutes after pentazol are recorded (PTZ spasms antagonism).
The ED50 values indicated in the table were determined according to the method of Litchfield and Wilcoxon (J. Pharmacol. exp. Ther. 96 (1949) […]) as the amount of antagonistically acting substance which protects 50% of the animals from spasms and death.

benzodiazepine receptors [3] = test: displacement of 3H-flunitrazepam from benzodiazepine receptors in vitro (rat forebrain membranes); details: 50% displacement of specific 3H-flunitrazepam binding (1.0 nM, 0° C.), brain membranes of rats, pH 7.1

SMILES	ED50 (mg/kg) in vivo (benzodiazepine receptors [1])	ED50 [2]	IC50 (ng/ml) in vitro (benzodiazepine receptors [3])
CCOC(=O)c1ncc2[nH]c3cccc(Oc4ccc(Cl)cc4Cl)c3c2c1COC [5-(2,4-dichlorophenoxy)-4-methoxymethyl-beta-carboline-3-carboxylic acid ethyl ester]	3.2 mg/kg	4 mg/kg	2.9 ng/mL (≈ 6.51 nM)
COCc1c(C(=O)OC(C)C)ncc2[nH]c3cccc(Oc4ccccc4Cl)c3c12 [5-(2-Cl-Phenoxy), CH2 OCH3, COOCH(CH3)2]	19 mg/kg	4 mg/kg	2.6 ng/mL (≈ 6.12 nM)
CCc1noc(-c2ncc3[nH]c4cccc(Oc5ccccc5Cl)c4c3c2COC)n1 [5-(2-Cl-Phenoxy), CH2 OCH3, drawing 10]	11 mg/kg	0.8 mg/kg	3.1 ng/mL (≈ 7.13 nM)
CCOC(=O)c1ncc2[nH]c3cccc(Oc4ccccc4)c3c2c1COC [5-Phenoxy, CH2 OCH3, COOEt, 5-Phenoxy-4-methoxymethyl-beta-carboline-3-carboxylic acid ethyl ester]	0.4 mg/kg	18 mg/kg	0.3 ng/mL (≈ 0.797 nM)
CCc1noc(-c2ncc3[nH]c4cccc(Oc5ccccc5)c4c3c2COC)n1 [5-Phenoxy, CH2 OCH3, drawing 12, 5-phenoxy-4-methoxymethyl-3-(3-ethyl-1,2,4-oxadiazol-5-yl)-beta carboline]	0.3 mg/kg	0.1 mg/kg	0.6 ng/mL (≈ 1.5 nM)
CCOC(=O)c1ncc2[nH]c3cccc(Oc4ccccc4)c3c2c1C [5-Phenoxy, CH3, COOC2 H5, 5-phenoxy-4-methyl-beta-carboline-3-carboxylic acid ethyl ester, reference compound]	2.8 mg/kg	> 30 mg/kg	2.0 ng/mL (≈ 5.77 nM)
CCc1noc(-c2ncc3[nH]c4cccc(Oc5ccccc5)c4c3c2C)n1 [5-Phenoxy, CH3, drawing 13, 5-phenoxy-4-methyl-3-(3-ethyl-1,2,4-oxadizaol-5-yl)-beta-carboline]	3.9 mg/kg	2 mg/kg	4.3 ng/mL (≈ 11.6 nM)
COCc1c(C(=O)OC(C)C)ncc2[nH]c3ccc(Oc4cccc(Cl)c4C#N)cc3c12 [6-(2-cyano-3-chlorophenoxy)-4-methoxymethyl-beta-carboline-3-carboxylic acid isopropyl ester]	3.0 mg/kg	1 mg/kg	0.67 ng/mL (≈ 1.49 nM)
COCc1c(C(=O)OC(C)C)ncc2[nH]c3ccc(Oc4ccccc4C#N)cc3c12 [6-(2-cyanophenoxy)-4-methoxymethyl-beta-carboline-3-carboxylic acid isopropyl ester]	3.8 mg/kg	4 mg/kg	0.29 ng/mL (≈ 0.698 nM)
COCc1c(C(=O)OC(C)C)ncc2[nH]c3ccc(Oc4ccccc4[N+](=O)[O-])cc3c12 [6-(2-nitrophenoxy)-4-methoxymethyl-beta-carboline-3-carboxylic acid isopropyl ester]	1.8 mg/kg	13 mg/kg	0.33 ng/mL (≈ 0.758 nM)
CCc1noc(-c2ncc3[nH]c4ccc(Oc5ccc(C(C)=O)cc5)cc4c3c2COC)n1 [6-(4-acetylphenoxy), CH2 OCH3, drawing 11, 6(4-acetylphenoxy)-4-methoxymethyl-3-(3-ethyl-1,2,4-oxadizaol-5-yl)-beta-carboline]	7.7 mg/kg	0.3 mg/kg	0.45 ng/mL (≈ 1.02 nM)
CCc1noc(-c2ncc3[nH]c4ccc(Oc5ccccc5)cc4c3c2C)n1 [6-Phenoxy, CH3, drawing 14, 6-phenoxy-4-methyl-3-(3-ethyl-1,2,4-oxadiazol-5-yl)-beta carboline]	2.6 mg/kg	2.4 mg/kg	3.2 ng/mL (≈ 8.64 nM)
